The structures appear in SMILES notation.

We go through one molecule from patent US20240261354A1, “METHODS FOR IMPROVING BONE QUALITY AND PROMOTING CARTILAGE DIFFERENTIATION BY CHRYSOPHYLLUM CAINITO EXTRACT AND MANUFACTURING METHOD THEREOF” (TCI CO., LTD., priority 2023, published 2024).

The experiment relates to OP9 cells. Nature of the experiment: Test of myricetin promoting osteocalcin secretion. Format: cell-based, Murine. The following applies: 0.03125 mg/mL in differentiation culture medium, 7 days; blank group taken as 100%; ELISA of supernatant. The text has this:
Experimental cell line: Murine bone marrow stromal cells (hereinafter referred to as OP9 cells) were used, and the OP9 cells were purchased from OP9 cell lines (ATCC CRL-2749™) from the American Type Culture Collection (ATCC®). Cell culture medium: It included […] (Minimum Essential Medium Alpha Medium, purchased from Gibco, product number: Cat. 12000-022), 20% of Fetal Bovine Serum (purchased from Gibco, Cat. 10437-028), and 1% of Penicillin-streptomycin (purchased from Gibco, Cat. 15240-062). Differentiation culture medium: It included 90% of DMEM (Dulbecco's modified Eagle's medium, purchased from Gibco, Cat. 12100-038) added with additional ingredients to make it include 10% of FBS (fetal bovine Serum, purchased from Gibco, 10438-026) and 1% of penicillin-streptomycin (purchased from Gibco, Cat. 15140122), 50 μM of ascorbic acid (purchased from Sigma), 10^−7 M of dexamethasome (purchased from Sigma), and 10 mM of β-glycerol (purchased from Sigma). ELISA Kit for Osteocalcin (OC): Brand: USCN; model: SEA471Mu. Flow cytometer: Purchased from BD Pharmingen Company, model: BDTM Accuri C6 Plus. […] The content of osteocalcin in the supernatant to be detected in each well was measured by the […] to promote osteocalcin secretion analysis. […]
(In an ELISA, binding on a coated surface is turned into a signal by an enzyme label.)

Turning to `O=c1c(O)c(-c2cc(O)c(O)c(O)c2)oc2cc(O)cc(O)c12` [myricetin], the relative osteocalcin secretion is given as 121.39%.
